Measured values from patent US5426113A, “Method of preventing ulcer formation caused by nonsteroidal antiinflammatory drugs employing tetrazol-benzothiophene carboxamide compounds” (Warner-Lambert Company, priority 1994, dated 1995).
“Also recorded” adds a separate entry of the source. Read-outs that look alike come from different tables or passages of the source.

Assays:
basal acid secretion = experiment: Shay rat model of basal acid secretion; format: in vivo; conditions: 50 or 200 mg/kg PO; pylorus ligated 1 hour later, acid content 4 hours later
Method: This has been tested in two different animal models. In the rat, Example 1 was tested in the Shay rat model of basal acid secretion. […] One hour later the animals were anesthetized and the pyloric sphincter to the stomach was ligated. The stomachs were removed 4 hours later and their acid content determined.

[1] = test system: stimulated acid secretion; experiment: Dimaprit-stimulated gastric fistula beagle dog model; format: in vivo
Description: All parameters of gastric secretion appeared to be practically identical to those observed in the vehicle-only controls.

MAC-1 [2] = biological target: T1, MAC-1 (Homo sapiens, UniProt P05107+P11215); conditions: Wright C. D., et al., Keystone symposium 1994; cited from earlier work
T1 construct: endogenous in cells

[3] = test system: leukocyte adhesion in the animal's mesenteric post-capillary venules; experiment: NSAID (indomethacin)-induced leukocyte adhesion in rat mesenteric post-capillary venules, intravital microscopy; format: in vivo; conditions: indomethacin 10 minutes later
Description: In these studies, oral treatment of rats with the NSAID indomethacin results in leukocyte adhesion in the animal's mesenteric post-capillary venules. This can be observed and measured using the technique of Intravital microscopy.

[4] = test system: animal disease models (asthma, allergy, arthritis, adult respiratory distress syndrome (ARDS), and cardiac reperfusion); experiment: Animal disease models (asthma, allergy, arthritis, ARDS, cardiac reperfusion); format: in vivo
[5] = test system: NSAID-induced gastric damage; experiment: Gastric cytoprotection in animal models (NSAID-induced gastric damage); format: in vivo; conditions: Rattus norvegicus, po; range over models
Method: (§1) Fifteen minutes later, the animals were orally challenged with a single dose of 20 mg/kg indomethacin or 288 mg/kg aspirin. The animals were euthanized either at 4 hours (indomethacin) or 30 minutes (aspirin) later and the amount of gastric damage was assessed using image analysis.

[6] = test system: human basophil histamine release; experiment: Human basophil histamine release stimulated with anti-IgE; format: cell-based
[7] = test system: human colonic adenocarcinoma (CaCO-2) cells
Method: [^14 C]Example 1 (22.9 μg/mL) was loaded on to either the apical (luminal) or basolateral (vascular) of the monolayer. Samples were obtained over 250 minutes from either side of the chamber in each experiment.

[8] = test system: NSAID-induced gastric damage; conditions: indomethacin and aspirin in rats; Low J. E., et al., 1993; cited from earlier work
[9] = test system: indomethacin-induced gastric damage; experiment: Indomethacin-induced gastric damage model; format: in vivo; conditions: Rattus norvegicus; oral, 15 minutes before 20 mg/kg indomethacin PO; assessed at 4 hours; read-out: ED50 cytoprotection, indomethacin
Method: as §1

[10] = test system: aspirin-induced gastric damage; experiment: Aspirin-induced gastric damage model (aspirin erosion model); format: in vivo; conditions: Rattus norvegicus, 0.5 h
Method: as §1
Additional compounds of Formula I were tested in both the MAC-1 and the aspirin-induced gastric damage model (Table 1 and FIG. 4). Compounds which were active in the MAC-1 assay were also active in the gastric cytoprotective assay.

[11] = test system: gastrointestinal tissues (stomach, small and large intestines); experiment: Whole body autoradiography after intravenous radiolabeled Example 1; format: in vivo
Plasma protein binding = format: in vitro ADME; conditions: rat, dog, sheep, and human
MAC-1 [12] = biological target: T1, MAC-1; experiment: Inhibition of MAC-1 mediated adhesion of FMLP-stimulated neutrophils to KLH-coated plastic; format: cell-based; conditions: 1 h, read-out: increase of MAC-1 dependent adherence to KLH-coated plastic
[13] = po, Table 1, aspirin-induced gastric damage model, read-out: Gastric Cytoprotective Effect (ED50, mg/kg PO)

T1 sequence (P05107 23-769, other chains not shown): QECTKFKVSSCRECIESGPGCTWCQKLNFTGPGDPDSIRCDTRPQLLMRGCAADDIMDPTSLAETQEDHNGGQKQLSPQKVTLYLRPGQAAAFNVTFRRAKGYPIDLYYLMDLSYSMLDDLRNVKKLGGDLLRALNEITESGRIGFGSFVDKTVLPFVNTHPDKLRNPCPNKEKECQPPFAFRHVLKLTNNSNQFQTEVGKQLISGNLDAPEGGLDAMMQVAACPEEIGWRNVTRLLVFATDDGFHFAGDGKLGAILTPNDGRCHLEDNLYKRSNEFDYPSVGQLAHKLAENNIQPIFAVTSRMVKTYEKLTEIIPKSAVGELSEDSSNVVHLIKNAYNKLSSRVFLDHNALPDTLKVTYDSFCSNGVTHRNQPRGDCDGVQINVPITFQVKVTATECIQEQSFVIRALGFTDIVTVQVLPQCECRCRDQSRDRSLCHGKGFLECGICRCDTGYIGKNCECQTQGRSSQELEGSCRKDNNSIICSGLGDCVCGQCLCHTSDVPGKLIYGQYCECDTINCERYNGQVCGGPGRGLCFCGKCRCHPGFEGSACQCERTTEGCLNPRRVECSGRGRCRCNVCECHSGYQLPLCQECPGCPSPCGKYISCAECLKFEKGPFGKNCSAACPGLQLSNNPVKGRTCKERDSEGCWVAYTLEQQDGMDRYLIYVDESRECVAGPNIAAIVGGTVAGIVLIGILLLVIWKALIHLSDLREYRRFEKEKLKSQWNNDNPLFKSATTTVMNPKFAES

**Q.** With `COc1ccc2sc(C(=O)Nc3nnn[nH]3)c(OC(C)C)c2c1` [Example 1, 5-Methoxy-3-(1-methylethoxy)-N-1H-tetrazol-5-yl-benzo[b]thiophene-2-carboxamide] as the compound, how does the “effect on basal acid secretion” value (basal acid secretion) read?
**A.** Its value is “no effect”.

**Q.** And the “changes in gastric secretion” value ([1]; 0.1, 1.0, or 10 mg/kg PO, dimaprit-stimulated)?
**A.** Its value is “no significant changes”.

**Q.** And the “inhibition of neutrophil adhesion mediated by MAC-1” value (MAC-1 [2])?
**A.** The value was “can inhibit neutrophil adhesion; also recorded: inhibits neutrophil adhesion”.

**Q.** What about the “inhibition of indomethacin-induced leukocyte adhesion” value ([3]; 1 mg/kg PO, 40 and 70 minute time point) of the same compound?
**A.** Its value is “no protective effects”.

**Q.** What about the “inhibition of indomethacin-induced leukocyte adhesion” value ([3]; 5 or 10 mg/kg PO) of the same compound?
**A.** The value was “complete inhibition”.

**Q.** What about the ED50 ([4]; IV) of the same compound?
**A.** The ED50 was 5 to 20 mg/kg.

**Q.** And the ED50 ([4]; oral)?
**A.** The ED50 was 30 to 100 mg/kg.

**Q.** What about the ED50 [5] of the same compound?
**A.** The ED50 was 0.01 to 1 mg/kg.

**Q.** What about the IC50 ([6]; Homo sapiens, anti-IgE stimulated, absence of serum) of the same compound?
**A.** Its IC50 is 300 nM.

**Q.** What about the “inhibitory effect on human basophil histamine release in the presence of serum” value ([6]; increasing concentration of serum (5-50%)) of the same compound?
**A.** The value was “significantly reduced”.

**Q.** What about the “amount on apical side compared to basolateral side” value [7] of the same compound?
**A.** The value was “significantly more”.

**Q.** And the “gastric cytoprotective effects against damage caused by NSAIDs” value [8]?
**A.** The value was “gastric cytoprotective effects”.

**Q.** And the ED50 [9]?
**A.** Its ED50 is 1 mg/kg.

**Q.** What about the ED50 ([10]; oral, 15 minutes before 288 mg/kg aspirin PO, assessed at 30 minutes, read-out: ED50 cytoprotection, aspirin) of the same compound?
**A.** Its ED50 is 0.01 mg/kg.

**Q.** What about the “time to radiolabeled material associated with gastrointestinal tissues” value ([11]; rapid) of the same compound?
**A.** Its value is 5 min.

**Q.** And the “levels of radiolabeled material associated with gastrointestinal tissues” value ([11]; stomach, small and large intestines)?
**A.** Its value is “high levels”.

**Q.** And the fraction unbound (Plasma protein binding)?
**A.** Its fraction unbound is 0.01 to 0.02.

**Q.** Which ED50 [10, 13] does the source give for `COc1ccc2c(OC(C)C)c(C(=O)Nc3nnn[nH]3)sc2c1` [Example 2, 6-Methoxy-3-(1-methylethoxy)-N-1H-tetrazol-5-yl-benzo[b]thiophene-2-carboxamide] here?
**A.** Its ED50 is 1 mg/kg.

**Q.** With `COc1cc2sc(C(=O)Nc3nnn[nH]3)c(OC(C)C)c2cc1OC` [Example 3, 5,6-Dimethoxy-3-(1-methylethoxy)-N-1H-tetrazol5-yl-benzo[b]thiophene-2-carboxamide] as the compound, how does the ED50 [10, 13] read?
**A.** The ED50 was 1 mg/kg.

**Q.** For `COc1cc2sc(C(=O)Nc3nnn[nH]3)c(Oc3ccccc3)c2cc1OC` [Example 4, 5,6-Dimethoxy-3-phenoxy-N-1H-tetrazol-5-yl-benzo[b]thiophene-2-carboxamide], which ED50 [10, 13] is on record?
**A.** Its ED50 is 0.01 mg/kg.

**Q.** For `CSCC[C@H](NC=O)C(=O)N[C@@H](CC(C)C)C(=O)N[C@@H](Cc1ccccc1)C(=O)O` [N-formyl-methionyl-leucyl-phenylalanine], which activation at 0.01 µM (MAC-1 [12]) is on record?
**A.** Its activation at 0.01 µM is 49%.

**Q.** Which “gastric secretion pH” value ([1]; constant intravenous 0.2 mg/kg hr) does the source give for `CN(C)CCCSC(=N)N` [dimaprit] here?
**A.** The value was 1.0.

**Q.** Which “increase in gastric pH” value ([1]; 1.5 mg/kg PO, dimaprit 0.2 mg/kg hr IV) does the source give for `CNC(=C[N+](=O)[O-])NCCSCc1ccc(CN(C)C)o1` [ranitidine] here?
**A.** The value was 4 units.
